# Laboratory results as given in EP2565188A1, “Novel photoactivatable paclitaxel derivatives and uses thereof, in particular in cellbiology and cancer treatment” (Max-Planck-Gesellschaft zur Förderung der Wissenschaften …, priority 2011, dated 2013).
# What was measured:
# [1] = Solubility test of 10 µM solutions in 1:1000 DMSO:PIPES buffer; assay type: physicochemical
# Method: 10 mM solutions of PTX derivatives in DMSO were prepared. All substances were soluble in DMSO at this concentration. 10 µM solutions of were obtained by 1:1000 dilution of the stock solution into 80 mM PIPES buffer pH 6.8, containing 2 mM MgCl2 and 1 mM EGTA. Table A: solubility test of 10 µM solutions of PTX derivatives in 1:1000 DMSO:PIPES buffer
# [2] = Photocleavage study: irradiation at 360 nm, composition by HPLC; assay type: physicochemical; conditions: 1 mM, 5% water in acetonitril, share of the labelled species
# Method: The photolysis of the compounds 2'-Nvoc-PTX and 2',7-bisNvoc-PTX was followed by UV and HPLC analysis of the correspondent solutions after exposure to light at λmax = 360 nm (2.7 mW/cm^2).
# 3 ml of a 1 mM solution of caged PTX in acetonitrile containing 5% water was placed into a quartz cuvette and was exposed at 360 nm for different irradiation times. Aliquots of 50 µl were taken after various irradiation times, and each aliquot was splitted in two parts. 20 µl were diluted to 400 µl to obtain 50 µM solution for UV-Vis characterisation. The 30 µl left from each aliquot were injected into the HPLC (20 µl loop, analytical column) in order to estimate the composition of the irradiated mixture.
# Photocleavage of compound 2',7-bisNvoc-PTX was expected to yield the mono-substituted species 2'-Nvoc-PTX and 7-Nvoc-PTX as intermediates that can be further photolyzed to afford free PTX. In fact, HPLC analysis (Fig. 1) confirmed the presence of 2'-Nvoc-PTX (retention time, r.t.= 16.7 min) and 7-Nvoc-PTX (r.t. = 18.2 min) together with the starting compound 2',7-bisNvoc-PTX (r.t. = 21.3 min) and the fully deprotected PTX (r.t. = 11.1 min). The ratio of these compounds within the composition of the irradiated mixture changes with the exposure dose. Fig. 2 and Table B below show the compositional evolution of the mixture with increasing irradiation time as obtained by HPLC analysis. […] However, the influence of other structural factors in the photolytic mechanism cannot be ruled out. Compound 7-Nvoc-PTX could also be isolated from the irradiated mixture in milligram scale. Table B. Molar composition of a solution of 2',7-bisNvoc-PTX (1 mM, 5% water in acetonitril) after different irradiation times, as determined by analysis of HPLC graphs (Fig. 2)
# HeLa cells [3] = assay: Live cell imaging of the microtubule network (Tubulin Tracker / DRAQ5, CLSM); assay type: cell-based, Human; conditions: 24 h
# Method: (§1) Human cervix carcinoma cells, HeLa cells (#ACC57, DMSZ, Germany), were cultured in DMEM medium (Invitrogen) supplemented with 10% fetal calf serum (FCS, Gibco) in a humidified incubator at 37°C/5%CO2.
# In order to visualize the influence of the PTX derivatives in the microtubule network of the cell, a live cell microscopy analysis of HeLa cells after incubation with 10 µM PTX derivatives for 24 hours was performed.
# Specifically, microtubules and nuclei of HeLa cells were fluorescently stained with Tubulin Tracker (Invitrogen) and DRAQ5 (biostatus, United Kingdom) respectively, and imaged by a Leica TCS SP5 confocal laser scanning microscopy (CLSM). 30x10^4 HeLa cells were seeded in 8-well chamber slides (Lab-Tek, nunc, Germany) and the culture medium was replaced after ~16 h by compound supplemented medium (250 µL, DMEM, 10% FCS, 1% DMSO) or medium without compound (DMEM, 10% FCS, 1% DMSO) as a specific control. After 24h, cells were carefully washed with Hank's Buffered Saline Solution (HBSS, with Ca^2+ and Mg^2+, Invitrogen) and the buffer was replaced by a staining solution containing 250 nM Tubulin Tracker (Invitrogen) and 5 µM DRAQ5. The cells were stained for 30 min at 37°C/5% CO2 in a humidified incubator. The staining solution was replaced by HBSS and the cells were directly imaged with a 100x plan apochromat (1.4 NA) oil immersion objective on the CLSM system equipped with a CO2 incubator and a temperature control. Tubulin Tracker was excited with an argon laser (488 nm) and the emission was detected by 500-580 nm. DRAQ5 was excited with a HeNe laser (633 nm) and the emission was detected by 650-730 nm. The images have a voxel height and width of 90 nm. Bright field images grabbed with an Olympus IX-70 inverted microscope with a 20x phase contrast objective. Image processing performed with Leica LAS AF lite and ImageJ (Fiji).
# HeLa cells [4] = assay type: cell-based, Human; conditions: 48 h
# Method: as §1
# In order to evaluate the bioactivity of the caged PCT derivatives, their cytotoxicity was tested in vitro using HeLa cells. Cells were incubated with PTX and caged PTX derivatives at concentrations between 0.01 and 10 µM.
# The effect of PTX and derivatives on cell vitality was measured in a combined assay determining cytotoxicity and cell number by propidium iodide (PI) staining. HeLa cells (2x10^4 cells/well) were diluted in cell culture medium (DMEM, 10 % FCS) and seeded in 96 well-plates (black plate, clear bottom, corning, Amsterdam, Netherlands). The culture medium was replaced after ~16h by compound supplemented medium (200 µL, DMEM, 10 % FCS, 1 % DMSO) or medium without compound (DMEM, 10 % FCS, 1 % DMSO) as a specific control. After 48 h, dead cells with permeable cell membranes were stained with PI ([…], 15 min at 37°C, 5% CO2) and the PI fluorescence intensity was measured with a fluorescence plate reader (excitation wavelength 530 nm, emission wavelength 620 nm, Tecan Infinite M1000, Austria). Subsequently, the cells were lysed with 2% Triton X-100 diluted in DMEM (0.3% Triton X-100 per well, 15 min at 37°C, 5% CO2 and the PI fluorescence was measured again. The vitality of the cells was calculated by the ratio of dead cells (DC) before lyses and the total cell number (TCN) after lyses (1-DC/TCN).
structure (smiles),measurement,setting,value
"CC(=O)O[C@H]1C(=O)[C@@]2(C)[C@H]([C@H](OC(=O)c3ccccc3)[C@]3(O)C[C@H](OC(=O)[C@H](O)[C@@H](NC(=O)c4ccccc4)c4ccccc4)C(C)=C1C3(C)C)[C@]1(OC(C)=O)CO[C@@H]1C[C@@H]2O [PTX, Paclitaxel]",solubility test (appearance of solution),"[1]; 10 µM in 1:1000 DMSO:PIPES buffer (80 mM, pH 6.8), time 1 hr",clear solution
same,solubility test (appearance of solution),"[1]; 10 µM in 1:1000 DMSO:PIPES buffer (80 mM, pH 6.8), time 8 hrs",clear solution
same,solubility test (appearance of solution),"[1]; 10 µM in 1:1000 DMSO:PIPES buffer (80 mM, pH 6.8), time 24 hrs",Suspension
same,solubility test (appearance of solution),"[1]; 10 µM in 1:1000 DMSO:PIPES buffer (80 mM, pH 6.8), time 30 hrs",white precipitate
same,solubility test (appearance of solution),"[1]; 10 µM in 1:1000 DMSO:PIPES buffer (80 mM, pH 6.8, 2 mM MgCl2, 1 mM EGTA), time 5 min",clear solution
same,"Molar composition of a solution of 2',7-bisNvoc-PTX after irradiation","[2]; 360 nm (2.7 mW/cm^2), irradiation time 0 min",0%
same,"Molar composition of a solution of 2',7-bisNvoc-PTX after irradiation","[2]; 360 nm, irradiation time 60 min",0%
same,"Molar composition of a solution of 2',7-bisNvoc-PTX after irradiation","[2]; 360 nm, irradiation time 270 min",1.7%
same,"Molar composition of a solution of 2',7-bisNvoc-PTX after irradiation","[2]; 360 nm, irradiation time 450 min",6.0%
same,"Molar composition of a solution of 2',7-bisNvoc-PTX after irradiation","[2]; 360 nm, irradiation time 570 min",10.6%
same,"Molar composition of a solution of 2',7-bisNvoc-PTX after irradiation","[2]; 360 nm, irradiation time 735 min",18.5%
same,"Molar composition of a solution of 2',7-bisNvoc-PTX after irradiation","[2]; 360 nm, irradiation time 820 min",21.2%
same,"Molar composition of a solution of 2',7-bisNvoc-PTX after irradiation","[2]; 360 nm, irradiation time 1585 min",60.5%
same,cell morphology / mitosis in microscopy images,HeLa cells [3]; 10 µM,mitosis of HeLa cells was blocked
same,microtubule staining by Tubulin Tracker (fluorescence CLSM),HeLa cells [3]; 10 µM,absence of the mitotic spindle stained with Tubulin Tracker
same,concentration triggering the multiple nuclei pattern,HeLa cells [3]; patterns similar between the compounds (Fig. 6),2 nM
same,concentration at which cell vitality is significantly reduced,HeLa cells [4],0.1 µM
